Experimental data from patent US10519117B2, “Crystal forms of 6-bromo-3-hydroxy-2-pyrazinecarboxamide” (FUJIFILM Toyama Chemical Co., Ltd., priority 2015, dated 2019).

What was measured:
Type in all cases: physicochemical
[1] = Standing of crystals at room temperature
Text: It is difficult to store type-A crystals of compound D for a long period.
Type-C crystals of compound D can be produced by, for example, leaving type-A crystals of compound D to stand at room temperature.
The standing time may be one week to one year.

[2] = Storage stability of crystals of compound D at 60° C. and 75% relative humidity (Test Example 2), crystal form by infrared absorption spectrum; details: for change of crystal form on storage (summary in words) / stability on storage (summary in words): up to 8 weeks
Method: Type-A crystals, type-B crystals or type-C crystals of compound D were packed in double plastic bags and stored under conditions of 60° C. temperature and 75% relative humidity. Sampling was performed over time, and the crystal form was determined by infrared absorption spectrum measurement.

[3] = Solubility in organic solvents
Text: Therefore, compound C is isolated according to any method such as neutralization crystallization in an aqueous solvent.

| SMILES | change of crystal form when left to stand [1] | change of crystal form on storage (summary in words) ([2]; 60° C., 75% relative humidity) | crystal form after storage ([2]; double plastic bags, 60° C., 75% relative humidity, 8 weeks) | storage stability (general statement) [2] | stability on storage (summary in words) ([2]; 60° C., 75% relative humidity) | solubility in various organic solvents [3] |
| --- | --- | --- | --- | --- | --- | --- |
| NC(=O)c1nc(Br)cnc1O [Type-A crystals, 6-bromo-3-hydroxy-2-pyrazinecarboxamide] | converted into type-C crystals | changed to type-C crystals | A + C(major) |  |  |  |
| NC(=O)c1nc(Br)cnc1O [Type-B crystals, 6-bromo-3-hydroxy-2-pyrazinecarboxamide] |  | not changed |  | excellent in storage stability | stable |  |
| NC(=O)c1nc(Br)cnc1O [Type-C crystals, 6-bromo-3-hydroxy-2-pyrazinecarboxamide] |  | not changed |  |  | stable |  |
| NC(=O)c1nccnc1O [compound C, 3-hydroxy-2-pyrazinecarboxamide] |  |  |  |  |  | hardly soluble |
